Consider 14 molecules from US6030993A, “2-hydroxypropionic acid derivative and its manufacturing method” (Sang Sup JEW, priority 1996, dated 2000).

In general, LD50 refers to the dose expected to kill half of the subjects tested. A higher LD50 goes with lower toxicity.

Entries after “also recorded” stand apart in the source; their conditions may differ.

Series [1] has as its system diabetes-induced Sprague-Dawley rats. The series is described as follows: Blood glucose lowering effect in streptozotocin diabetes-induced rats, oral. In kind it is in vivo. The note with it: STZ (45 mg/kg) diabetic male Sprague-Dawley rats, 50 mg/kg oral in 30% ethanol, smallest blood glucose of 90, 120 and 180 min; for inhibition in vivo at 50 mg/kg: Rattus norvegicus, read-out: Blood glucose lowering rate. As to the method:
Two groups of male diabetes-induced Sprague-Dawley rats (each of 4-5 rats weighing about 250 g per group) were used for this experiment. 45 mg/kg of streptozotocin (STZ) dissolved in 0.1M citrate buffer (pH 4.5, 0-4° C.) was injected to the tail vein of fasted rats for 1 day. After elapse of 7 days, their blood glucose concentration were measured and animals having the blood serum concentration of more than 350 mg/dl were used as diabetes-induced rats for this experiment. The rats were intravenously administered at a daily dose of 1 ml/kg, while the normal control group received equal volume of 0.1M citrate buffer.
7 days after being treated with streptozotocin, diabetes-induced rats were orally administered at a dose of 50 mg/kg of the compounds prepared by the procedures of Examples 1-13. Then, at time intervals of 90 mins, 120 mins and 180 mins, their blood glucose concentrations were measured and the smallest values were taken. The compounds of Example 1-13 were dissolved in 30% ethanol until its final concentration became 2 ml/kg, while the control group was orally received equal volume of 30% ethanol.
Significant difference between two groups was determined by ANOVA test, together with a post hoc test using Newman-Keuls test.

A short description of series [2]: Acute oral toxicity test in rats. The note with it: rat, in vivo, mature rats 200-250 g, dissolved in ethylacetate. How it is done:
The acute toxicity tests on rats were performed using the compound prepared by the procedure of the Example 1. Mature rats weighing 200-250 g were orally given the compound of the Example 1 dissolved in ethylacetate in parallel with its gradually increasing concentration. Then, LD50 was calculated by number of killed animals.

The conditions of series [3]: phase II clinical trials, discontinued; cited from earlier work.

`CCOC(=O)C(O)(CO)CCCCCCOCc1ccccc1` (stereo not drawn) [Example 1, Ethyl-2,3-dihydroxy-2-(6-benzoxy)hexylpropionate]: the inhibition in vivo at 50 mg/kg in series [1] stood at 38.5%. The median lethal dose (LD50) in series [2] is 482 mg/kg. As for `CCOC(=O)C(O)(CO)CCCCCCOCc1ccc(OC)cc1` (stereo not drawn) [Example 2, Ethyl-2,3-dihydroxy-2-[6-(4-methoxybenzoxy)hexyl]propionate], the inhibition in vivo at 50 mg/kg in series [1] worked out at 10%. Same read-out and setting: for `CCOC(=O)C(O)(CO)CCCCCCOc1ccc(Cl)cc1` (stereo not drawn) [Example 3, Ethyl-2,3-dihydroxy-2-[6-(4-chlorophenoxy)hexyl]propionate] the value was 23%. In the case of `CCOC(=O)C(O)(CO)CCCCCCn1nc(C)cc1C` (stereo not drawn) [Example 4, Ethyl-2,3-dihydroxy-2-[6-(3,5-dimethylpyrazol)hexyl]propionate], the “Blood glucose lowering rate” value in series [1] was 19.8%.

For the molecule `CCOC(=O)C(O)(CO)CCCCCCOCc1ccc(C)o1` (stereo not drawn) [Example 5, Ethyl-2,3-dihydroxy-2-[6-(5-methyl-2-furanmethoxy)hexyl]propionate], in series [1], the inhibition in vivo at 50 mg/kg amounted to 22%. The same measure, in the same setting: for `CCOC(=O)C(O)(CO)CCCCCCOCCc1cccs1` (stereo not drawn) [Example 6, Ethyl-2,3-dihydroxy-2-[6-(2-thiophenethoxy)hexyl]propionate] the value was 1.2%. The same measure, in the same setting: for `CCOC(=O)C(O)(CO)CCCCCCOCc1ccc(Cl)s1` (stereo not drawn) [Example 7, Ethyl-2,3-dihydroxy-2-[6-(5-chloro-2-thiophenmethoxy)hexyl]propionate] the value was 19.2%; for `CCOC(=O)C(O)(CO)CCCCCCOCc1sccc1Cl` (stereo not drawn) [Example 8, Ethyl-2,3-dihydroxy-2-[6-(3-chloro-2-thiophenmethoxy)hexyl]propionate], 26%; for `CCOC(=O)C(O)(CBr)CCCCCCOc1ccc(Cl)cc1` (stereo not drawn) [Example 9], 22%.

For `CCOC(=O)C(O)(CCCCCCOCc1ccccc1)COS(=O)(=O)c1ccc(C)cc1` (stereo not drawn) [Example 10, Ethyl 2-hydroxy-3-(4-methylbenzenesulfoxy)-2-[6-benzoxyhexyl]propionate], in series [1], the inhibition in vivo at 50 mg/kg was 34.1%. On the same count and under the same terms, for `CCOC(=O)C(O)(CBr)CCCCCCOCCc1cccs1` (stereo not drawn) [Example 11, Ethyl 2-hydroxy-3-bromo-2-[6-(2-thiophenethoxy)hexyl]propionate] the value was 13%. Consider `CCOC(=O)C(O)(CBr)CCCCCCOCc1ccc(Cl)s1` (stereo not drawn) [Example 12, Ethyl 2-hydroxy-3-bromo-2-[6-(5-chlorothiophenemethoxy)hexyl]propionate], for which, in series [1], the inhibition in vivo at 50 mg/kg worked out at 26.4%.

With `CCOC(=O)C(O)(CBr)CCCCCCOCc1sccc1Cl` (stereo not drawn) [Example 13, Ethyl 2-hydroxy-3-bromo-2-[6-(3-chlorothiophenemethoxy)hexyl]propionate], the inhibition in vivo at 50 mg/kg in series [1] came to 19.3%.

`CCOC(=O)[C@@]1(CCCCCCOc2ccc(Cl)cc2)CO1` [etomoxir]: the “side effects associated with prolonged administration” value in series [3] is “enlarged heart; also recorded: toxicity in the liver”.
